Calls of active or inactive are those of the source. The calls are words filed in the database; no cut-off is given here.
Assays:
[1] = molecular target: T1, Growth factor receptor-bound protein 2 (Homo sapiens, UniProt P62993); test: Displacement of biotin-Ahx-PSpYVNVQN peptide from GST fused Grb2 SH2 domain by ELISA
[2] = molecular target: T1, Growth factor receptor-bound protein 2; test: Inhibition of Grb2 by ELISA
Target sequence in this assay (P62993 whole entry, the tested form may be a part): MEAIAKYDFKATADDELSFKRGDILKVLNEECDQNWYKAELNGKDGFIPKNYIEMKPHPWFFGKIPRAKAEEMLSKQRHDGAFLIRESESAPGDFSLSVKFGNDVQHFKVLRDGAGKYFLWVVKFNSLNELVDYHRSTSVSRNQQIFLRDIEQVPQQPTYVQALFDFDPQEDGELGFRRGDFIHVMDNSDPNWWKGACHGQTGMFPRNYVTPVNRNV

NC(=O)CNc1nc(Nc2ccc(OP(=O)(O)O)cc2)nc(-c2cccc(Oc3ccc(OP(=O)(O)O)cc3)c2)n1
Activity [1]: inactive

NC(=O)CNc1nc(Nc2ccc(OP(=O)(O)O)cc2)nc(-c2ccccc2Oc2ccc(OP(=O)(O)O)cc2)n1
IC50 [1]: 265 µM

Cc1cc(-c2cccc(Oc3ccc(OP(=O)(O)O)cc3)c2)nc(Nc2ccc(-c3nn[nH]n3)cc2)n1
Activity [1]: inactive

Cc1ccc(OC(C)(C)C(=O)N[C@@H](Cc2ccc(OP(=O)(O)O)cc2)C(=O)N[C@@](C)(Cc2ccc(OP(=O)(O)O)cc2)C(=O)N[C@@H](CC(N)=O)C(N)=O)c(/N=N/c2ccccc2)c1
IC50 [2]: 0.011 µM
